# Data from patent publication US10040804B2, “Compounds targeting proteins, compositions, methods, and uses thereof” (BioTheryX, Inc., priority 2016, dated 2018).
# Where a name gives a salt, the structure may show the parent alone.
# How the values were obtained:
# IL-1β = IL-1β expression in LPS stimulated PBMCs (Meso Scale); type: cell-based, human; conditions: Homo sapiens, PBMC; for inhibition at 5 µM: compound concentration 5 μM; for inhibition at 10 µM: compound concentration 10 μM
# Experimental: FIGS. 5 and 9A are graphs showing IL-1-beta expression in LPS stimulated peripheral blood mononuclear cells (PBMCs), PBMCs were plated in 96-well plates and pretreated with compound (Compound 1-9 individually) for 1 h, and then induced with 100 ng/mL LPS for 18-24 h. Cytokines in the media were measured according to MesoScale protocol. Negative control wells were treated with DMSO. Compound activity is measured as a percentage of LPS-induced activity. “Rev” is lenalidomide.
# (§1) Frozen primary blood mononuclear cells (PBMCs) and frozen CD14+ mobilized peripheral blood monocytes were purchased from AllCells. Cells were quick thawed, and washed 1-time with RPMI-1640/10% FBS/1% Penicillin/1% Streptomycin and plated in 96-well plates at 200,000 cells per well. Cells were pretreated with DMSO only, Compound 5013 (lenolidamide) or the indicated compound for 1 h and then induced with 100 ng/mL lipopolysaccharide (LPS) for 18-24 h. The supernatant was analyzed for IL-1 beta, IL-6, and TNF-α using Meso Scale assay according to manufacturer's protocol. The negative control wells were treated with DMSO.
# (§2) PBMCs: AllCells PB003F, Normal Peripheral Blood MNC.
# (§3) Media: RPMI 1640/10% FBS/1% Pen-Strep.
# IL-6 = IL-6 expression in LPS stimulated PBMCs (Meso Scale); type: cell-based, human; conditions: Homo sapiens, PBMC, LPS-stimulated PBMCs; for inhibition at 5 µM: compound concentration 5 μM; for inhibition at 10 µM: compound concentration 10 μM
# Experimental: FIGS. 6 and 9B are graphs showing IL-6 expression in LPS stimulated peripheral blood mononuclear cells (PBMCs). PBMCs were plated in 96-well plates and pretreated with compound (Compound 1-9 individually) for 1 h, and then induced with 100 ng/mL LPS for 18-24 h. Cytokines were measured according to MesoScale protocol. Negative control wells were treated with DMSO. Compound activity was measured as a percentage of LPS-induced activity. “Rev” is lenalidomide.
# as §1, §2, §3
# TNF-α = TNF-α expression in LPS stimulated PBMCs (Meso Scale); type: cell-based, human; conditions: Homo sapiens, PBMC; for inhibition at 5 µM: compound concentration 5 μM; for inhibition at 10 µM: compound concentration 10 μM
# Experimental: FIGS. 7 and 9C are graphs showing TNF-a expression in LPS stimulated peripheral blood mononuclear cells (PBMCs). PBMCs were plated in 96-well plates and pretreated with compound (Compound 1-9 individually) for 1 h, and then induced with 100 ng/mL LPS for 18-24 h. Cytokines in the media were measured according to MesoScale protocol. The negative control wells were treated with DMSO. Compound activity is measured as a percentage of LPS-induced activity. “Rev” is lenalidomide.
# as §1, §2, §3
# IL-2 = test: anti-CD3-induced IL-2 secretion in PBMCs; type: cell-based; conditions: Homo sapiens, PBMC, anti-CD3 stimulated PBMCs, 24 h, DMSO = 1.0, read-out: Fold Change IL-2; for fold induction at 5 µM: compound concentration 5 μM; for fold induction at 10 µM: compound concentration 10 μM
# Experimental: FIGS. 4 and 9D are graphs showing anti-CD3-induced IL-2 secretion in PBMCs. 1 ug/mL anti-CD3 (OKT-3) antibody in PBS were coated onto 96-well plates overnight at 4° C. Approximately 550,000 PBMCs were added to each well, followed by addition of DMSO only, Compound 1-8 at 10 μM (FIG. 4) or Compound 9 at 0.1 μM or 1 μM (FIG. 9D), or 10 μM lenalidomide (rev). Induction was measured after 24 h as fold difference from the DMSO stimulated control.
# For the IL-2 analysis, 96 well plates were precoated with 1 ug/mL anti-human CD3 antibody (OKT3, eBioscience Inc.). After washing with PBS, compounds were added to the wells (50 μL/well) followed by PBMCs diluted at 3-4 million cells/mL (150 μL/well). Plates were incubated for 24 h and the supernatants collected for Mesoscale IL-2 analysis.
# Compound activity was measured as fold difference from the DMSO control. IL-1-beta activity is shown in FIG. 1; IL-6 activity is shown in FIG. 2; TNF-α activity is shown in FIG. 3; and IL-2 activity is shown in FIG. 4.
# Molm-13 cells = test: Molm-13 cell viability (CellTiter-Glo); type: cell-based; conditions: Homo sapiens, MOLM-13; compound concentration 10 μM; read-out: % Inhibition (MOLM-13 Cell Viability)
# Experimental: FIG. 10A is a graph showing antiproliferative activity in H1048 (SCLC) cells. FIG. 10B is a graph showing antiproliferative activity in Molm-13 (AML) cells. In FIGS. 10A and 10B, the cells were incubated for 72 hrs with Compound 9 at the indicated concentrations or DMSO. Compound activity was measured based on the signal from remaining viable cells.
# Molm-13 cells were cultivated in RPMI-1640 (10% FBS/1% pen-strep) and were plated in white walled 96-well plates at 20,000 cells/well. H1048 cells were cultured in DMEM:F12 media supplemented with 5% fetal bovine serum, insulin, transferrin, sodium selenite, hydrocortisone, β-estradiol, penicillin and streptomycin, and were plated in white walled 96-well plates at 20,000 cells/well. MDA-MB-231 cells were cultured in DMEM media supplemented with 10% fetal bovine serum, penicillin and streptomycin, and were plated in white walled 96-well plates at 10,000 cells/well. Cells were treated with compound or DMSO (0.1%, control) and the cultures were incubated for 3 days at 37° C. and 5% CO2. Following the incubation period, 100 μL of CellTiterGlow (CTG) reagent (CellTiter-Glo® Luminescent Cell Viability Assay, Promega (Madison, Wis.)) was added to each well. Following a 10 min incubation with shaking, luminescence was measured using a Victor Wallac Luminometer.
Structure (SMILES),inhibition at 5 µM (IL-1β) [%],inhibition at 5 µM (IL-6) [%],inhibition at 5 µM (TNF-α) [%],fold induction at 5 µM (IL-2),cytotoxicity at 10 µM (Molm-13 cells) [%],inhibition at 10 µM (IL-1β) [%],inhibition at 10 µM (IL-6) [%],inhibition at 10 µM (TNF-α) [%],fold induction at 10 µM (IL-2)
"O=C1CCC[C@H](N2Cc3ccsc3C2=O)C(=O)N1 [Compound 1, (S)-3-(6-oxo-4,6-dihydro-5H-thieno[2,3-c]pyrrol-5-yl)azepane-2,7-dione]",25,0,22,0.8,6,–,–,–,–
"O=C1CCC[C@H](N2Cc3sccc3C2=O)C(=O)N1 [Compound 2, (S)-3-(4-oxo-4,6-dihydro-5H-thieno[2,3-c]pyrrol-5-yl)azepane-2,7-dione]",88,31,65,1.9,32,–,–,–,–
"O=C1CCC[C@H](N2C(=O)c3ccsc3C2=O)C(=O)N1 [Compound 3, (S)-5-(2,7-dioxoazepan-3-yl)-4H-thieno[2,3-c]pyrrole-4,6(5H)-dione]",–,–,–,–,0,0,0,0,0.9
"O=C1NCCCC[C@@H]1N1Cc2sccc2C1=O [Compound 4, (S)-5-(2-oxoazepan-3-yl)-5,6-dihydro-4H-thieno[2,3-c]pyrrol-4-one]",–,–,–,–,0,0,0,0,0.7
"O=C1CCC[C@@H](N2Cc3sccc3C2=O)C(=O)N1 [Compound 5, (R)-3-(4-oxo-4,6-dihydro-5H-thieno[2,3-c]pyrrol-5-yl)azepane-2,7-dione]",–,–,–,–,24,0,1,0,1.4
"O=C1C[C@H](N2Cc3sccc3C2=O)C(=O)N1 [Compound 6, (S)-3-(4-oxo-4,6-dihydro-5H-thieno[2,3-c]pyrrol-5-yl)pyrrolidine-2,5-dione]",–,–,–,–,0,14,8,16,1
"O=C1CCC[C@H](N2Cc3cscc3C2=O)C(=O)N1 [Compound 7, (S)-3-(4-oxo-4H-thieno[3,4-c]pyrrol-5(6H)-yl)azepane-2,7-dione]",–,–,–,–,24,60,47,41,1.7
"Cc1scc2c1CN([C@H]1CCCC(=O)NC1=O)C2=O [Compound 8, (S)-3-(1-methyl-4-oxo-4H-thieno[3,4-c]pyrrol-5(6H)-yl)azepane-2,7-dione]",–,–,–,–,42,80,71,71,1
"O=C1CCC[C@H](N2Cc3c(csc3C3CCCC3)C2=O)C(=O)N1 [Compound 10, (S)-3-(1-Cyclopentyl-4-oxo-4H-thieno[3,4-c]pyrrol-5(6H)-yl)azepane-2,7-dione]",–,–,–,–,18,21,13,37,0.6
"Cc1cc2c(s1)CN([C@H]1CCCC(=O)NC1=O)C2=O [Compound 11, (S)-3-(2-Methyl-4-oxo-4,6-dihydro-5H-thieno[2,3-c]pyrrol-5-yl)azepane-2,7-dione]",–,–,–,–,18,65,26,46,2.6
"CC(C)c1scc2c1CN([C@H]1CCCC(=O)NC1=O)C2=O [Compound 12, (S)-3-(1-Isopropyl-4-oxo-4H-thieno[3,4-c]pyrrol-5(6H)-yl)azepane-2,7-dione]",–,–,–,–,31,52,0,56,0.8
"O=C1CCC[C@H](N2Cc3c(csc3Br)C2=O)C(=O)N1 [Compound 13, (S)-3-(1-Bromo-4-oxo-4H-thieno[3,4-c]pyrrol-5(6H)-yl)azepane-2,7-dione]",–,–,–,–,0,90,66,84,1.2
"O=C1CCC[C@H](N2Cc3sc(Br)cc3C2=O)C(=O)N1 [Compound 14, (S)-3-(2-Bromo-4-oxo-4,6-dihydro-5H-thieno[2,3-c]pyrrol-5-yl)azepane-2,7-dione]",–,–,–,–,0,88,65,85,1.5
"O=C1CCC[C@H](N2C(=O)c3csc([N+](=O)[O-])c3C2=O)C(=O)N1 [Compound 15, (S)-5-(2,7-Dioxoazepan-3-yl)-1-nitro-4H-thieno[3,4-c]pyrrole-4,6(5H)-dione]",–,–,–,–,19,67,56,55,0.7
"Nc1scc2c1C(=O)N([C@H]1CCCC(=O)NC1=O)C2=O [Compound 16, (S)-1-Amino-5-(2,7-dioxoazepan-3-yl)-4H-thieno[3,4-c]pyrrole-4,6(5H)-dione]",–,–,–,–,23,80,51,78,2.2
"N#Cc1scc2c1CN([C@H]1CCCC(=O)NC1=O)C2=O [Compound 17, (S)-5-(2,7-Dioxoazepan-3-yl)-4-oxo-5,6-dihydro-4H-thieno[3,4-c]pyrrole-1-carbonitrile]",–,–,–,–,21,4,14,26,1
"NCc1scc2c1CN([C@H]1CCCC(=O)NC1=O)C2=O [Compound 18, (S)-3-(1-(Aminomethyl)-4-oxo-4H-thieno[3,4-c]pyrrol-5(6H)-yl)azepane-2,7-dione 2,2,2-trifluoroacetic Acid Salt]",–,–,–,–,3,36,32,48,0.9
"O=C1CCC[C@H](N2Cc3c(csc3C(F)F)C2=O)C(=O)N1 [Compound 19, (S)-3-(1-(Difluoromethyl)-4-oxo-4H-thieno[3,4-c]pyrrol-5(6H)-yl)azepane-2,7-dione]",–,–,–,–,29,79,78,59,4
